The first assay addresses T1, HIV-1 reverse transcriptase (Human immunodeficiency virus type 1 group M subtype B, UniProt P04585).
T1 construct: active against reverse transcriptase, especially that of HIV-1
Nature of the assay: activity of separated optical isomers (test not stated). As to conditions: second eluting peak on chiral AGP column.
On to `N#Cc1ccc(NC(=O)N[C@@H]2[C@@H]3COc4c(F)ccc(F)c4[C@@H]32)nc1` [Example 30, (−)-cis-1-(5-Cyano-pyridin-2-yl)-3-(4,7-difluoro-1,1a,2,7b-tetrahydro-cyclopropa[c]chromen-1-yl)-urea], for which the “activity of the more slowly eluting isomer, typically negative rotation” value is recorded as “particularly active”. For the compound `O=C(Nc1ccc(Cl)cn1)N[C@H]1C2c3c(F)ccc(F)c3OC[C@H]21` (single isomer, unassigned; (-)) [Example 31, (−) cis-1-(5-Chloro-pyridin-2-yl)-3-(4,7-difluoro-1,1a,2,7b-tetrahydro-cyclopropa[c]chromen-1-yl)-urea], the “activity of the more slowly eluting isomer, typically negative rotation” value is listed as “particularly active”.

A further assay deals with HIV-1IIIB (wild type). Nature of the assay: XTT assay in MT-4 cells infected with wild type HIV-1IIIB. The class given is cell-based. As to conditions: Human immunodeficiency virus 1, MT4, read-out: ED50. How it is done: Compounds of the invention are assayed for HIV activity, for example using multiple determinations with XTT in MT-4 cells (Weislow et al, J Nat Cancer Inst 1989, vol 81 no 8, 577 et seq), preferably including determinations in the presence of 40-50% human serum to indicate the contribution of protein binding. In short the XTT assay uses human T cell line MT4 cells grown in RPMI 1640 medium supplemented with 10% fetal calf serum (or 40-50% human serum as appropriate), penicillin and streptomycin seeded into 96 well microplates (2·10^4 cells/well) infected with 10-20 TCID50 per well of HIV-1IIIB (wild type) or mutant virus, such as those bearing RT lie 100, Cys 181 or Asn 103 mutations. Serially diluted test compounds are added to respective wells and the culture incubated at 37° C. in a CO2 enriched atmosphere and the viability of cells is determined at day five or six with XTT vital dye. Results are typically presented as ED50 μM.
With `N#Cc1ccc(NC(=O)N[C@@H]2[C@@H]3COc4c(F)ccc(F)c4[C@@H]32)nc1` [Example 30, (−)-cis-1-(5-Cyano-pyridin-2-yl)-3-(4,7-difluoro-1,1a,2,7b-tetrahydro-cyclopropa[c]chromen-1-yl)-urea], the EC50 came to 3 nM.

For `N#Cc1ccc(NC(=O)NC2C3Sc4ccccc4C23)nc1` (racemic) [Example 43, (+/−)cis N-[1a,6b-dihydro-1H-benzo[b]cyclopropa[d]thien-1-yl]-N′-(5-cyano-2-pyridinyl)-urea], the EC50 came out at 2 nM.

Consider `N#Cc1ccc(NC(=O)N[C@@H]2[C@@H]3COc4cc(F)cc(F)c4[C@@H]32)nc1` (relative stereo) [Example 23, 1-(5-Cyano-pyridin-2-yl)-3-(5,7-difluoro-1,1a,2,7b-tetrahydro-cyclopropa[c]chromen-1-yl)urea], for which the EC50 is 7 nM. As for `N#Cc1ccc(NC(=O)N[C@@H]2[C@@H]3COc4c(Br)ccc(F)c4[C@@H]32)nc1` [Example 24, cis-1-(4-Bromo-7-fluoro-1,1a,2,7b-tetrahydro-cyclopropa[c]chromen-1-yl)-3-(5-cyano-pyridin-2-yl)-urea], the EC50 worked out at 20 nM. On the same count and under the same terms, the same measure for `O=C(Nc1ccc(Cl)cn1)N[C@H]1C2c3c(F)ccc(F)c3OC[C@H]21` (single isomer, unassigned; (-)) [Example 31, (−) cis-1-(5-Chloro-pyridin-2-yl)-3-(4,7-difluoro-1,1a,2,7b-tetrahydro-cyclopropa[c]chromen-1-yl)-urea]: 2.5 nM; for `N#Cc1ccc(NC(=O)N[C@@H]2[C@@H]3COc4c(Cl)ccc(Cl)c4[C@@H]32)nc1` [Example 33, +/−-cis-N-(5-cyano-2-pyridinyl)-N′-(4,7-dichloro-1,1a,2,7b-tetrahydrocyclopropa[c]chromen-1-yl)urea]: 9 nM.

The same assay, now with this note: XTT assay, MT-4 cells, wild type HIV-1IIIB; read-out: ED50 (the source's name).
As to “(+/−)-cis-1-(4,7-Difluoro-1,1a,2,7b-tetrahydro-cyclopropa[c]chromen-1-yl)-3-(5-ethynyl-pyridin-2-yl)-urea [Example 18]”, the EC50 was 6 nM.

On to “(+/−)-cis-1-(5-Bromo-pyridin-2-yl)-3-(4,7-difluoro-1,1a,2,7b-tetrahydro-cyclopropa[c]chromen-1-yl)-urea [Example 19]”, for which the EC50 amounted to 10 nM. Regarding `N#Cc1ccc(NC(=O)NC2C3COc4c(Cl)ccc(F)c4C32)nc1` (racemic) [Example 7, (±)-cis-1-(5-Cyano-pyridin-2-yl)-3-(7-fluoro-4-chloro-1,1a,2,7b-tetrahydro-cyclopropa[c]chromen-1-yl)-urea], the EC50 stood at 7 nM. For the compound “(+/−)-cis-1-(5-Cyano-3-methyl-pyridin-2-yl)-3-(4,7-difluoro-1,1a,2,7b-tetrahydro-cyclopropa[c]chromen-1-yl)-urea [Example 16]”, the EC50 came to 6 nM. On the same count and under the same terms, next, `O=C(Nc1ccc(Oc2ccccc2)cn1)N[C@@H]1[C@@H]2COc3c(F)ccc(F)c3[C@@H]21` (relative stereo) [Example 20, +/−cis-1-(4,7-Difluoro-1,1a,2,7b-tetrahydro-cyclopropa[c]chromen-1-yl)-3-(5-phenoxy-pyridin-2-yl)-urea]: 7 nM.

Values taken from patent US6716850B2, “Non-nucleoside reverse transcriptase inhibitors” (Medivir AB, priority 2001, dated 2004).
